Measured values taken from US9364543B2, “Visible light curable hydrogels and methods for using” (Indiana University Research and Technology Corporation, priority 2012, dated 2016).
Where two headings read alike, the source gives them in different places.

Key:
[1] = cited from earlier work
[2] = cited from earlier work; remark: listed apart in the source
[3] = Eosin-Y release and retention in thiol-ene hydrogels; type: physicochemical; conditions: for eosin-Y retention in thiol-ene hydrogels: after 48 hours of swelling
Method: EXAMPLE. Eosin-Y retention: PEG4NB-DTT hydrogel discs (8 mm in diameter and 1 mm in height) are fabricated. Immediately after polymerization, each hydrogel (8 mm in diameter and 1 mm in height) is immersed into a scintillation vial containing 2 mL of ddH2O. Three separate samples are prepared per experimental condition. These scintillation vials are capped tightly and stored at 37° C. on an orbital shaker. At specific time points, these vials are swirled manually to ensure homogeneous mix and 200 μL of solution is transferred to a well of a transparent 96-well plate. The buffer is changed at every time point. The absorbance (at 515 nm) of the collected samples is determined using a microplate reader (Biotek). Eosin-Y retention was calculated by generating a standard curve prepared from a series of known eosin-Y concentrations (0.02 mM being the highest).

[4] = post-gelation, pH 7.4 PBS, FIG. 10

time in which most of the eosin-Y was released from the hydrogel [3, 4] [h]	time to complete release of eosin-Y from the hydrogel [3, 4] [h]	eosin-Y retention in thiol-ene hydrogels ([3]; starting eosin-Y concentration 0.1 mM) [µmol]	eosin-Y retention in thiol-ene hydrogels ([3]; starting eosin-Y concentration 2.0 mM) [µmol]	SMILES	water solubility [1] [wt %]	molar absorptivity (ε) ([2]; at 365 nm) [M⁻¹ cm⁻¹]	molar absorptivity (ε) ([2]; at 405 nm) [M⁻¹ cm⁻¹]
				CC(C)(O)C(=O)c1ccc(OCCO)cc1 [I-2959]	< 0.5	< 10	
				Cc1cc(C)c(C(=O)P(=O)([O-])c2ccccc2)c(C)c1.[Li+] [LAP, lithium arylphosphinate]	> 5	~200	~30
0.5	6	~0.004	~0.03	O=C([O-])c1ccccc1-c1c2cc(Br)c(=O)c(Br)c-2oc2c(Br)c([O-])c(Br)cc12.[Na+].[Na+] [eosin-Y, Eosin-Y disodium salt]			
